Results: patent publication US20050043381A1, “Aminopyrazole compounds” (AGOURON PHARMACEUTICALS, INC., priority 2003, published 2005)

How the values were obtained:
[1] = target: T1, full-length human CHK1 (FL-CHK1) (Homo sapiens, UniProt O14757); assay: FL-CHK1 assay (coupled spectrophotometric, Syntide-2); assay type: biochemical; conditions: FL-CHK1, 0.15 mM ATP
T1 construct: C-terminally His-tagged full-length human CHK1 (FL-CHK1); 6xHis (C); made in house
T1 sequence (O14757 1-476): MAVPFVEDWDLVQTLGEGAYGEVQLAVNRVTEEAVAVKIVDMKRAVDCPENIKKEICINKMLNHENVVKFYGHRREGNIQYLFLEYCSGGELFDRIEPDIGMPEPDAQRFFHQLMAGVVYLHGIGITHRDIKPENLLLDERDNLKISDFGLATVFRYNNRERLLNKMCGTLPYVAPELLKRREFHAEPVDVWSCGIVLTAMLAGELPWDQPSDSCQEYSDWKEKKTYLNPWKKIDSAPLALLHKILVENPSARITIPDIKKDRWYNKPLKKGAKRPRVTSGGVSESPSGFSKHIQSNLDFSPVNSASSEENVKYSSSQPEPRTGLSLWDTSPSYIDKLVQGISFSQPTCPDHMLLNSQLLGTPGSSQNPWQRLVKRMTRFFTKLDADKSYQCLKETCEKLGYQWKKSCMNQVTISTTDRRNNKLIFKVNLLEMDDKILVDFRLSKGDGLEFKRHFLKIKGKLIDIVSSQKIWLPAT
From the text: C-terminally His-tagged full-length human CHK1 (FL-CHK1) was expressed using the baculovirus/insect cell system. It contains 6 histidine residues (6 x His-tag) at the C-terminus of the 476 amino acid human CHK1. The protein was purified by conventional chromatographic techniques.
The production of ADP from ATP that accompanies phosphoryl transfer to the synthetic substrate peptide Syntide-2 (PLARTLSVAGLPGKK) was coupled to oxidation of NADH using phosphoenolpyruvate (PEP) through the actions of pyruvate kinase (PK) and lactic dehydrogenase (LDH). The oxidation of NADH was monitored by following the decrease of absorbance at 340 nm (ε340=6.22 cm^−1 mM^−1) using a HP8452 spectrophotometer. Typical reaction solutions contained: […] PEP; 0.15 mM NADH; 28 units of LDH/mL; 16 units of PK/mL; 3 mM DTT; 0.125 mM Syntide-2; 0.15 mM ATP; 25 mM MgCl2 in 50 mM TRIS, pH 7.5; and 400 mM NaCl. Assays were initiated with 10 nM of FL-CHK1. Ki values were determined by measuring initial enzyme activity in the presence of varying concentrations of test compounds. The data were analyzed using Enzyme Kinetic and Kaleidagraph software. […]

CA-46 (lymphoma) cells = assay: Whole cell checkpoint abrogation assay (CHK1 Mitotic Index ELISA); assay type: cell-based; conditions: for EC50: concentration causing 50% abrogation of the checkpoint, camptothecin + Nocodazole
Experimental: To examine the in vitro effects of CHK1 inhibitory compounds, an ELISA assay can be designed to monitor the abrogation of DNA damage-induced checkpoint control. The assay can be based on the trapping and detection of mitotic cells following DNA damage-induced arrest.
CA-46 (lymphoma) cells can be treated with a DNA damaging agent, such as camptothecin (Sigma), at 50 nM for 8 hours to induce DNA damage. The control compound or CHK1 inhibitor can be then added at increasing concentrations with Nocodazole (Sigma) at 0.1 μg/ml and plates can be incubated for 16 hours. Control cells, where only CHK1 inhibitors can be added, can be prepared as well to assure that the inhibitors alone have no effect on the cell cycle. The cells can be then harvested, washed with PBS, and crude acid extraction can be performed. Pellets can be resuspended in 80 μl of Acid Extraction Buffer (10 mM Hepes pH 7.9, 1.5 mM MgCl2, 10 mM KCl, 0.5 mM DTT, 1.5 mM PMSF, 0.4N sulfuric acid), vortexed briefly, and incubated for 30 minutes on ice. Samples can be then centrifuged and 75 μl of the supernatant can be transferred to a 96 well flat-bottom plate (VWR 3596). Next 15 μl Neutralizing Cocktail (# of samples×(10 μl 10N NaOH+5 μl 1M Tris Base) can be added to each well, and after mixing, 5 μl of this can be transferred to another 96 well plate with 100 μl 50 mM Tris base (pH 9.6) in each well. Samples can be dried overnight. The wells can be then washed with 200 μl ELISA wash buffer (PBS with 20 mM Tris pH 7.5, 0.05% Tween 20) 5 times and blocked with 200 μl blocking buffer (PBS with 20 mM Tris pH 7.5, 0.05% Tween 20, 3.5% Dry milk, 1.5% BSA. pH to 7.5 after preparation) for 1 hour at room temperature. Following wash and block, anti-phospho Histone H3 antibodies (Upstate USA, Inc., rabbit polyclonal) can be added at 0.5 μg/ml in block (100 μl per well) and incubated for 2 hours at room temperature. Wells can be washed again to remove unbound primary antibody and 100 μl alkaline phosphatase conjugated secondary antibodies at 0.3 mg/ml (Pierce, goat anti-rabbit IgG ([…]+L)) in block can be added for 1 hour at room temp. Wells can be washed 5 times to remove unbound secondary antibody, and washed again 3 times with PBS alone to remove detergents. Then 100 μl alkaline phosphatase substrate (Pierce 1-Step pNPP) can be added to wells. Plates can be protected from light and incubated at room temp for 1 hour. The OD can be read on Molecular Devices Vmax Kinetic Microplate Reader at 405 nm. The ratio of the OD (optical density) of a compound treated sample to the Nocodazole only treated sample (about 100% mitotic or abrogation) can be expressed in a percentage, and quantifies the percent abrogation of the checkpoint. The concentration at which a compound causes 50% abrogation of the checkpoint can be called the EC50. The raw OD values can be graphed in Excel, and an EC50 value can be generated using Kaleidograph software. Strong signal results from Nocodazole only treated cells, and equals 100% mitosis in this assay. Camptothecin+Nocodazole treated control samples have low signal, signifying no mitosis and therefore, no checkpoint abrogation. When potent CHK1 inhibitors are added to Camptothecin treated cells with Nocodazole, a high signal can be generated (generally in a dose dependent manner), due to the checkpoint abrogation activity caused by the combination treatment.

SMILES | Ki [1] [nM] | EC50 (CA-46 (lymphoma) cells) [nM] | percent abrogation of the checkpoint (CA-46 (lymphoma) cells; @ 0.5 μM) [% @ 0.5 μM] | further results
Oc1ccc(-c2ccc(-c3cc(Nc4ccc(CNC5CCCC5)nc4)n[nH]3)cc2)c(O)c1 [Example 14, 4′-[5-({6-[(cyclopentylamino)methyl]pyridin-3-yl}amino)-1H-pyrazol-3-yl]-1,1′-biphenyl-2,4-diol] | 1 to 10 | 160 | – | –
Oc1ccc(-c2ccc(-c3cc(Nc4ncccn4)n[nH]3)cc2)c(O)c1 [Example 11, N-[3-(2′,4′-dihydoxy-1,1′-biphenyl-4-yl)-1H-pyrazol-5-yl]pyrimidin-2-amine] | 1 to 10 | – | – | –
Oc1ccc(-c2ccc(-c3cc(Nc4ccccc4)n[nH]3)cc2)c(O)c1 [Example 21, 4′-(3-anilino-1H-pyrazol-5-yl)-1,1′-biphenyl-2,4-diol] | – | 500 | – | –
Oc1ccc(-c2ccc(-c3cc(Nc4ccccn4)[nH]n3)cc2)c(O)c1 [Example 17, N-[5-(2′,4′-Dihydroxy-1,1′-biphenyl-4-yl)-1H-pyrazol-3-yl]pyridin-2-amine] | – | – | 16 | –
N#Cc1ccc(Nc2cc(-c3ccc(-c4ccc(O)cc4O)cc3)n[nH]2)cc1 [Example 2, 4-{[3-(2′,4′-Dihydroxy-1,1′-biphenyl-4-yl)-1H-pyrazol-5-yl]amino}benzonitrile] | 1 to 10 | – | – | percent abrogation of the checkpoint (CA-46 (lymphoma) cells; @ 1 μM): 1% @ 1 μM
CNC(=S)c1ccc(Nc2cc(-c3ccc(-c4ccc(O)cc4O)cc3)n[nH]2)cn1 [Example 16, 5-[5-(2′,4′-Dihydroxy-biphenyl-4-yl)-2H-Pyrazol-3-ylamino]-pyridine-2-carbothioic acid methylamide] | 1 to 10 | – | 10 | –
Oc1ccc(-c2ccc(-c3cc(Nc4cccnc4)[nH]n3)cc2)c(O)c1 [Example 18, N-[5-(2′,4′-Dihydroxy-1,1′-biphenyl-4-yl)-1H-pyrazol-3-yl]pyridin-3-amine] | – | 540 | – | –
Oc1ccc(-c2ccc(-c3cc(Nc4ccc(CNC5CC5)nc4)n[nH]3)cc2)c(O)c1 [Example 24, 4′-[5-({6-[(cyclopropylamino)methyl]pyridin-3-yl}amino)-1H-pyrazol-3-yl]-1,1′-biphenyl-2,4-diol] | 1 to 10 | – | – | percent abrogation of the checkpoint (CA-46 (lymphoma) cells; @ 1 μM): 1% @ 1 μM
Oc1ccc(-c2ccc(-c3cc(Nc4ccc(CNC5CC5)cc4)n[nH]3)cc2)c(O)c1 [Example 4, 4′-[5-(4-Cyclopropylaminomethyl-phenylamino)-2H-pyrazol-3-yl]-biphenyl-2,4-diol acetate] | – | 60 | – | –
Oc1ccc(-c2ccc(-c3cc(Nc4cccc(CNC5CC5)c4)n[nH]3)cc2)c(O)c1 [Example 3, 4′-[5-(3-Cyclopropylaminomethyl-phenylamino)-2H-pyrazol-3-yl]-biphenyl-2,4-diol acetate] | – | 900 | – | –
Oc1ccc(-c2ccc(-c3cc(Nc4cncs4)[nH]n3)cc2)c(O)c1 [Example 20, 4′-[5-(1,3-thiazol-5-ylamino)-1H-pyrazol-3-yl]-1,1′-biphenyl-2,4-diol] | – | – | 10 | –
OCc1cc(Nc2cc(-c3ccc(-c4ccc(O)cc4O)cc3)[nH]n2)ccn1 [Example 13, 4′-[5-(2-Hydroxymethyl-pyridin-4-ylamino)-2H-pyrazol-3-yl]-biphenyl-2,4-diol acetate] | – | – | 0 | –
N#Cc1cccc(Nc2cc(-c3ccc(-c4ccc(O)cc4O)cc3)n[nH]2)c1 [Example 1, 3-{[3-(2′,4′-Dihydroxy-1,1′-biphenyl-4-yl)-1H-pyrazol-5-yl]amino}benzonitrile] | 1 to 10 | – | 7 | –
Oc1ccc(-c2ccc(-c3cc(Nc4ccncc4)[nH]n3)cc2)c(O)c1 [Example 19, 4′-[5-(pyridin-4-ylamino)-1H-pyrazol-3-yl]-1,1′-biphenyl-2,4-diol] | 1 to 10 | – | 14 | –
Oc1cc(O)c(-c2ccc(-c3cc(Nc4ccc(CNC5CC5)cc4)n[nH]3)cc2)c(Cl)c1 [Example 8, 4′-[5-(4-Cyclopropylaminomethyl-phenylamino)-2H-pyrazol-3-yl]-biphenyl-6-chloro-2,4-diol acetate] | – | 150 | – | –
Cc1cc(O)cc(O)c1-c1ccc(-c2cc(Nc3ccc(CNC(C)C)cc3)n[nH]2)cc1 [Example 7] | – | 380 | – | –
CC(C)NCc1ccc(Nc2cc(-c3ccc(-c4ccc(O)cc4O)cc3)n[nH]2)cn1 [Example 25, 4′-[5-({6-[(isopropylamino)methyl]pyridin-3-yl}amino)-1H-pyrazol-3-yl]-1,1′-biphenyl-2,4-diol] | – | 560 | – | –
CCC(C)NCc1ccc(Nc2cc(-c3ccc(-c4ccc(O)cc4O)cc3)[nH]n2)cc1 (stereo not shown) [Example 22] | – | 60 | – | –
CN(C)Cc1ccc(Nc2cc(-c3ccc(-c4ccc(O)cc4O)cc3)[nH]n2)cn1 [Example 15, 4′-[5-({6-[(dimethylamino)methyl]pyridin-3-yl}amino)-1H-pyrazol-3-yl]-1,1′-biphenyl-2,4-diol] | 1 to 10 | 380 | – | –
Oc1ccc(-c2ccc(-c3cc(Nc4ccc(CNCC5CC5)cc4)n[nH]3)cc2)c(O)c1 [Example 10, 4′-[5-(4-Cyclopropylmethylaminomethyl-phenylamino)-2H-pyrazol-3-yl-]-biphenyl-2,4-diol acetate] | – | 75 | – | –
Oc1cc(O)c(-c2ccc(-c3cc(Nc4ccc(CNC5CC5)cc4)n[nH]3)cc2)c(F)c1 [Example 9, 4′-[5-({4-[(cyclopropylamino)methyl]phenyl}amino)-1H-pyrazol-3-yl]-6-fluoro-1,1′-biphenyl-2,4-diol] | 1 to 10 | 88 | – | –
CCNCc1ccc(Nc2cc(-c3ccc(-c4ccc(O)cc4O)cc3)[nH]n2)cn1 [Example 26, -[5-({6-[(ethylamino)methyl]pyridin-3-yl}amino)-1H-pyrazol-3-yl]-1,1′-biphenyl-2,4-diol] | – | 560 | – | –
OCc1ccc(Nc2cc(-c3ccc(-c4ccc(O)cc4O)cc3)[nH]n2)cn1 [Example 12, 4′-[5-(6-Hydroxymethyl-pyridin-3-ylamino)-2H-pyrazol-3-yl]-biphenyl-2,4-diol] | – | – | 5 | –
